The record followed here is patent US20110166149A1, “PTERIDINE DERIVATIVES FOR TREATING RESPIRATORY DISEASE” (TARGEGEN INC., priority 2008, published 2011).

The structures appear in SMILES notation.

A short description of this data set: Stability / precipitation of compound A solutions at pH ~3 (Examples 5, 6). It is filed as physicochemical. On the procedure:
36 mg of compound A was dissolved with the aid of 0.5 N HCl (QS to 1 g) under mixing and heat. 200 μL of this solution was mixed using a sonicator bath, if necessary with a separately prepared solution containing 1.8 mg of a 0.02% tyloxapol/2% PVP 90F and 34 μL of a 2 N NaOH, to give a final concentration of ˜3.3 mg/mL of compound A at a pH of ˜3. […] 200 μL of the above solution was mixed using a sonicator bath, if necessary with a solution containing 1.8 mg of a 0.02% tyloxapol/2% PVP 90F and 10 μL of a 2 N NaOH, to give a final concentration of ˜5 mg/mL of compound A at a pH of ˜3. This solution will start precipitating ˜20 min.

With `Nc1nc(N)c2nc(-c3cccc(O)c3)c(-c3cccc(O)c3)nc2n1` [Compound A, 6,7-bis(3-hydroxyphenyl)-pteridine-2,4-diamine], for the setting “~3.3 mg/mL, pH ~3, tyloxapol/PVP 90F (Example 5)”, the solution stability entry is recorded as “stable for more than an hour”. In addition, the “time to start of precipitation” value (~5 mg/mL, pH ~3, tyloxapol/PVP 90F (Example 6)) is listed as ~20 min.
